Laboratory results from US20210024483A1, “HETEROCYLCOALKENYL DERIVATIVES USEFUL AS AGONISTS OF THE GPR120 AND / OR GPR40” (Janssen Pharmaceutica NV, priority 2018, published 2021).
pEC50: −log10 of the molar value.

Legend:
[1] = target: T1, short form of the GPR120 receptor (Homo sapiens, UniProt Q5NUL3); assay: Human GPR120 DiscoveRx PathHunter Beta-Arrestin Assay, Procedure B; assay type: cell-based; details: PathHunter CHO-K1 GPR120S cells, 5000 cells/well
T1 construct: host or cells: PathHunter CHO-K1 GPR120S beta-Arrestin Cell Line
T1 sequence (Q5NUL3 1-361): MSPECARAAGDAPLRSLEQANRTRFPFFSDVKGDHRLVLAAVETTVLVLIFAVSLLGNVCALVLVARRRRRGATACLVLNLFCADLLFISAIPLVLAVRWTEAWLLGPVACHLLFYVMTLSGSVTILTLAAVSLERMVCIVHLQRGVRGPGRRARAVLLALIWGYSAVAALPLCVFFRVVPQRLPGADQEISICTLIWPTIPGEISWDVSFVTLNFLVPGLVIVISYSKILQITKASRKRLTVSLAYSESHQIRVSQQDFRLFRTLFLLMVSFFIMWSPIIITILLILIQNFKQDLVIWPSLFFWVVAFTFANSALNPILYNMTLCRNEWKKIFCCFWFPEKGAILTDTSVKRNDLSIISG
Source text: Human GPR120 DiscoveRx PathHunter® Beta-Arrestin Assay
The binding of an agonist (medium/long chain fatty acids or small molecule agonists) to the G-protein-coupled receptor GPR120 activates phospholipase C, leading to release of intracellular Ca^+2 through the generation of inositol 1,4,5-trisphosphate (InsP3 or IP3). GPR120 activation can also trigger intracellular signaling via recruitment of Beta-Arrestin. In the present method, agonist-induced activation of the human GPR120 receptor is monitored through the use of PathHunter® CHO-K1 GPR120 Beta-Arrestin Cell Line engineered by DiscoveRx, as detailed below. The cell lines were designed to co-express both the ProLink/Enzyme Donor (PK)-tagged GPCR and the Enzyme […] (EA)-tagged Beta-Arrestin fusion proteins. Upon GPR120 receptor stimulation/activation, the EA-tagged Beta-Arrestin portion is translocated to the tagged receptor, where the two enzyme fragments are brought within close proximity. Under these conditions, these fragments can interact and form an active Beta-gal enzyme complex through Enzyme Fragment Complementation (EFC). This active Beta-gal complex can enzymatically hydrolyse the substrate to produce a detectable light signal; therefore, activation as a function of agonist concentration can be expressed as an EC50 value to determine relative compound activities. This in vitro assay therefore serves to assess compound agonist activity of the GPR120.
In Procedure β-arrestin B the cells used were PathHunter® CHO-K1 GPR120S β-Arrestin Cell Line, expressing the short form of the GPR120 receptor (Accession #[…]), with 5000 cells/well.
The selected CHO-K1 GPR120 β-Arrestin cells were cultured in Ham's F12 media supplemented with 10% fetal bovine serum (FBS), 1% Glutamine, 1× p/s, 800 μg/mL G418 and 300 μg/mL Hygromycin B (for selection). Cell stocks were maintained and grown in a sub-confluent state using standard cell culture procedures. The day before the experiment, the cells were harvested with non-enzymatic cell dissociation buffer and re-suspended in complete growth media at the desired concentration. A Corning 384-plate was then seeded with the proper number of cells in a volume of 25 μL, per well. The seeded plates were incubated overnight at 37° C.
On the day of the experiment, the Assay Buffer containing (a) HBSS with Ca^++ and Mg^++, (b) 20 mM HEPES, and (c) 0.1% BSA stabilizer (pH 7.4) was prepared. The growth medium was gently removed from the cell plates and 20 μL of Assay Buffer added to each well. The plate was then incubated at 37° C. for 60 min. Test compounds were serially diluted in Assay Buffer to desired concentrations (more particularly to one or more of the following μM concentrations: 25, 12.5, 6.25, 3.12, 1.56, 0.78, 0.39, 0.19, 0.10, 0.05, 0.02, 0.01). Five μL of compound dilution was then added to each well and the plate incubated at 37° C. for 90 min. The detection reagents were prepared according to the manufacture's instruction. Twelve μL of the detection reagents were added to each well and the plate incubated at room temperature for 60 min.
The plates were read on an EnVision instrument, using Protocol name: Luminescence, Plate type: 384 Costar, Measurement height: 3 mm, Measurement time: 1 s, Aperture: 384 Plate aperture. The % Activity relative to the positive control was calculated using the following equation:
The % Activity values were plotted versus the concentration of test compound and fitted to a sigmoidal dose-response curve with a Hill slope=1 (fixed value) using nonlinear regression with GraphPad Prism 5.0 to calculate the EC50 values. The Fitting Equation was: Y=Bottom+(Top−Bottom)/(1+10^((Log EC50−X)*HillSlope)), where X is the log of the concentration and Y is the response.

[2] = target: T2, Human GPR120 short form (short splice variant, NM_001195755.1) (Homo sapiens, UniProt Q5NUL3); assay: Human GPR120 Calcium Flux Assay; assay type: cell-based; details: HEK-293 cells, 4200 cells/well, read-out: Human GPR120 Calcium Flux Assay Procedure B EC50
T2 construct: expressed in transfected cells; host or cells: HEK293
T2 sequence (Q5NUL3 1-361): T1 sequence (Q5NUL3 1-361)
Source text: In Vitro Assay: Human GPR120 in Calcium Flux Assay
This in vitro assay serves to assess test compound agonist activity against the short splice variant (SVS with Accession number NM_001195755.1 confirmed by sequencing data) of the GPR120 receptor. The Human Short splice variant #2 (NM_001195755.1) is missing an in-frame coding exon compared to variant 1 (the Human Long splice variant NM_181745.3), resulting in a shorter isoform (GPR120-S) lacking a 16 aa protein segment compared to isoform GPR120-L. The assay platform utilizes HEK-293 cells stably transfected to express the Human GPR120 short form. These cells are first loaded with the Ca^+2 sensitive dye, Fluo-4 NW. Upon stimulation, intracellular released Ca^+2 can bind to the dye and alter its fluorescence intensity. This increase in fluorescence signal, and thus the flux in intracellular [Ca^2+], is detected and quantitated by fluorescence imaging using a FLIPR reader. The effect of the agonist is measured as a function of concentration and used to calculate an EC50 based upon a response curve. […]
In this procedure 4200 cells/well were employed.
A Human GPR120 clone (Genbank accession number NM_001195755.1) was placed into the pcDNA3.1 mammalian expression vector carrying the neomycin resistance gene. A stable mammalian cell was generated by placing the above clone into a HEK293 background. Clonal cells responding to long chain fatty acids had expression levels of GPR120 confirmed by RT-qPCR. Human HEK-GPR120 cells were cultured in Dulbecco's Modified Eagle's Medium (DMEM)/F12 medium supplemented with 10% fetal bovine serum (FBS), 1% L-Glutamine and 1% penicillin/streptomycin and 0.5 mg/ml G-418. Cells were split 2 times a week to keep the cells in the log-phase growth.
In preparation for the assay, HEK cells stably transfected with Human GPR120 (2.5K cells per well in 25 uL growth medium) were seeded into 384-well plates and then incubated overnight (37° C., 5% CO2). The next day, the media was changed to 20 μL assay buffer and the cell starved for 1 h at 37° C. The dye loading solution (2× dye) was prepared using 10 mL assay buffer, 100 μL of 250 mM probenecid, 1 bottle of Component A, and 20 μl of dye in DMSO. Twenty μL of the 2× dye loading buffer was then added to each well. The plates were incubated at 37° C. for 30 min, then at room temperature for an additional 15 minutes, before performing the assay on FLIPR.
The assay was performed on a FLIPR plate reader using the following parameters. Baseline was read for 10 seconds at 1 sec intervals. The program was set to transfer 10 μL of ligand from compound plate to cell plate after baseline reading. Aspiration was executed at: 10 μL/sec speed, 4.6 μL height; Dispensing was executed at: 30 μL/sec speed, 45 μL height. After compound addition, each well was read for 300 sec, with measurements collected at 1 sec intervals.
The kinetic data from the FLIPR was based upon a 5 minute window for data collection. The fluorescence of each sample well was used for individual calculations of a normalized RFU value, which was defined as maximum response minus the minimum response. The normalized fluorescence reading (RFU) was calculated as follows:
The data were fitted to a sigmoidal dose-response curve with a variable Hill slope (<2) using nonlinear regression with GraphPad Prism 5.0 to calculate the EC50 values. The Fitting Equation was: Y=Bottom+(Top−Bottom)/(1+10^((Log EC50−X)*HillSlope)), where X is the log of the concentration and Y is the response.

Row | SMILES | pEC50 [1] | pEC50 [2]
1 | COc1ccc(C2=C(COc3ccc(CCC(=O)O)c(C)c3C)COCC2)cc1 [compound 647] | 6.13 | < 5.30
2 | Cc1cc(CCC(=O)O)ccc1OCC1=C(c2ccc(F)cc2)CSC1 [compound 625] | 6.96 | 6.91
3 | Cc1cc(CCC(=O)O)ccc1OCC1=C(c2ccc(Cl)cc2)COCC1 [compound 753] | 6.53 | 6.75
4 | O=C(O)CCc1ccc(OCC2=C(c3ccc(Cl)cc3)CCOC2)cc1C(F)(F)F [compound 646] | 5.44 | 6.20
5 | Cc1cc(CCC(=O)O)ccc1OCC1=C(c2ccc(Cl)cc2)CCOC1 [compound 645] | 6.56 | 6.57
6 | Cc1c(CCC(=O)O)ccc(OCC2=C(c3ccc(F)cc3)CCOC2)c1C [compound 650] | 6.18 | 6.50
7 | Cc1c(CCC(=O)O)ccc(OCC2=C(c3ccc(F)c(F)c3)CCOC2)c1C [compound 658] | 6.77 | 6.85
8 | Cc1c(CCC(=O)O)ccc(OCC2=C(c3ccc(Cl)cc3)CCOC2)c1C [compound 641] | 6.69 | 6.76
9 | O=C(O)CCc1cc(F)c(OCC2=C(c3ccc(Cl)cc3)CCOC2)c(F)c1 [compound 642] | 6.21 | 6.75
